# Test results published in patent publication US20040146474A1, “Method for softening lines and relaxing the skin with adenosine and adenosine analogues” (L'OREAL, priority 2002, published 2004).
# System: equivalent dermis model constituted by a matrix of collagen seeded with normal human fibroblasts
# Assay: Dermo-relaxant effect: spontaneous contraction of equivalent dermis (collagen matrix seeded with fibroblasts)
# Type: cell-based
# Details: adenosine 0.01%
# Source text: The principle of this test is to study the relaxing effect of adenosine on an equivalent dermis model constituted by a matrix of collagen seeded with normal human fibroblasts.
# These conditions were intended to imitate in vitro the dermal contractile phenomena which occur during facial expressions. Under these conditions, cells spontaneously express tensile forces which induce retraction of the collagen gel. […] Measuring that surface area allows the relaxation effects of substances that have been brought into contact with the equivalent dermis to be determined.
# Two series of 3 attached equivalent dermises containing normal human fibroblasts were prepared: a control series with no treatment, and a series treated with adenosine (0.01%). The experiment was carried out three times.
# The skin equivalents were prepared as described by Asselineau et al, Exp. Cell. Res., 1985, 159, 536-539; Models in Dermatology, 1987, vol 3, pp 1-7, in the following proportions:
# The treated equivalent dermis differed from the control equivalent dermis in that 0.01% of adenosine had been added.
# The collagen used was type I collagen (commercial solution), but it was also possible to use type III or IV collagen. It was extracted from rat tails or calf skin by acid hydrolysis and stored in an acidic medium at +4° C.; it polymerizes naturally by heating to 37° C. and by reducing the acidity. The collagen had been dialyzed against successive baths of water+acetic acid.
# The following protocol was employed: the following were introduced into a sterile tube: 1.76×MEM medium in the presence of additives (glutamine 1%, non essential amino acids 1%, sodium pyruvate 1%, fungizone 1% and penicillin/streptomycin 1%), foetal calf serum, 0.1 N sodium hydroxide NaOH. Fibroblasts isolated from human skin explants were then added in a concentration of 1.4×10^5 cells per ml of culture medium.
# A 1/1000 vol/vol mixture of collagen in acetic acid was then slowly added by pouring it down the tube wall so that the appearance of a whitish cloud was observed.
# The ensemble was then carefully mixed and distributed into the wells of a 12-well culture plate (Costar, reference 3512) in an amount of 0.5 ml of mixture per cm^2. The culture plate was placed in an incubator at 37° C. with 5% CO2.
# Once formed after polymerizing the collagen, the equivalent dermises were left adhering to the culture support for 3 days then detached from the support so that contraction could commence. […]
# To this end, a digital image was acquired for each treated or untreated equivalent dermis using a camera (CCD Camera—Iris Sony DXC—107P) and the surface area was then calculated for each image using an image analysis system (Zeiss Axiovision 3.0). […]
smiles,measurement,setting,value
Nc1ncnc2c1ncn2[C@@H]1O[C@H](CO)[C@@H](O)[C@H]1O [Adenosine],relaxing effect on equivalent dermis,conclusion in words,causes less contraction in an equivalent dermis
same,reduction of contraction percentage compared with the control,eight hours after detachment from support,10.5%
same,reduction of contraction percentage compared with the control,four hours after detachment from support,6.4%
same,reduction of contraction percentage compared with the control,twenty-four hours after detachment from support,12.7%
